Source: ChEMBL document CHEMBL4428063, “Novel Pyrimidine Toll-like Receptor 7 and 8 Dual Agonists to Treat Hepatitis B Virus” (J Med Chem, 2016)
Activity calls are given as the source filed them. No cut-off for these calls is given here.

Legend:
[1] = molecular target: T1, Toll-like receptor 7 (Homo sapiens) (UniProt Q9NYK1); assay: Agonist activity at human TLR7 expressed in HEK293 cells measured after 6 hrs by NF-kappaB luciferase reporter gene assay; type: cell-based
T1 sequence (whole entry): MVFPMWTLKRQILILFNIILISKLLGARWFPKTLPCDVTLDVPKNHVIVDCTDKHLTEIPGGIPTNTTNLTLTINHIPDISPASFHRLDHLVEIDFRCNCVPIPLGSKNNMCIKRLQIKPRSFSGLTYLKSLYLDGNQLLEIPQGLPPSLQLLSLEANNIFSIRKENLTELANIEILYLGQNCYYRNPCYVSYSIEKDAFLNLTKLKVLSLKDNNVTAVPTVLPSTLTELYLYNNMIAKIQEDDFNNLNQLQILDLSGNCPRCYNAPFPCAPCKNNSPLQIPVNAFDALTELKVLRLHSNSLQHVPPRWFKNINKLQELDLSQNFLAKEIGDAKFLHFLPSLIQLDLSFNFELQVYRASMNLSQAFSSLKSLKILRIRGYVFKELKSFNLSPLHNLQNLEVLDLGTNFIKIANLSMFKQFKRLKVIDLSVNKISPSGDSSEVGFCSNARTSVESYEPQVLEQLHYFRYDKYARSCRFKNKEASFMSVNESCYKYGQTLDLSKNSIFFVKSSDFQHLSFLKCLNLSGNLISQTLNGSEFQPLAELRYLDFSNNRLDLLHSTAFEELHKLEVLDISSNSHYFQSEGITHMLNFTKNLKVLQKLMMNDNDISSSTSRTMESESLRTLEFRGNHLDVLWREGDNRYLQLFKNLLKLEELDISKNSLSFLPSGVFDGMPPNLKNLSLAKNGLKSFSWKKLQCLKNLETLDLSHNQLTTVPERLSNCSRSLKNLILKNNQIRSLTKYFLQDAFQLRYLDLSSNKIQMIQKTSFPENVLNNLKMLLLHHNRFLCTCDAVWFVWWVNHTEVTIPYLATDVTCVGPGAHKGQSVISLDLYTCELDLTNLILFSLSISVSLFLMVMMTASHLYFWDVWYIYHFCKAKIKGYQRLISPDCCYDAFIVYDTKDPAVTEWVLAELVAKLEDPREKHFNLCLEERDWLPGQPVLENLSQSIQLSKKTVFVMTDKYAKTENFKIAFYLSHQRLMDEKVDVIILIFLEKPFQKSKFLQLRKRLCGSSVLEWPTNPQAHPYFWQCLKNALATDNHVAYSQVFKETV

[2] = molecular target: T2, Toll-like receptor 1 (Homo sapiens) (UniProt Q15399); assay: Agonist activity at wild-type human TLR1 expressed in HEK293 cells up to 25 uM measured after 6 hrs by NF-kappaB luciferase reporter gene assay; type: cell-based
T2 sequence (whole entry): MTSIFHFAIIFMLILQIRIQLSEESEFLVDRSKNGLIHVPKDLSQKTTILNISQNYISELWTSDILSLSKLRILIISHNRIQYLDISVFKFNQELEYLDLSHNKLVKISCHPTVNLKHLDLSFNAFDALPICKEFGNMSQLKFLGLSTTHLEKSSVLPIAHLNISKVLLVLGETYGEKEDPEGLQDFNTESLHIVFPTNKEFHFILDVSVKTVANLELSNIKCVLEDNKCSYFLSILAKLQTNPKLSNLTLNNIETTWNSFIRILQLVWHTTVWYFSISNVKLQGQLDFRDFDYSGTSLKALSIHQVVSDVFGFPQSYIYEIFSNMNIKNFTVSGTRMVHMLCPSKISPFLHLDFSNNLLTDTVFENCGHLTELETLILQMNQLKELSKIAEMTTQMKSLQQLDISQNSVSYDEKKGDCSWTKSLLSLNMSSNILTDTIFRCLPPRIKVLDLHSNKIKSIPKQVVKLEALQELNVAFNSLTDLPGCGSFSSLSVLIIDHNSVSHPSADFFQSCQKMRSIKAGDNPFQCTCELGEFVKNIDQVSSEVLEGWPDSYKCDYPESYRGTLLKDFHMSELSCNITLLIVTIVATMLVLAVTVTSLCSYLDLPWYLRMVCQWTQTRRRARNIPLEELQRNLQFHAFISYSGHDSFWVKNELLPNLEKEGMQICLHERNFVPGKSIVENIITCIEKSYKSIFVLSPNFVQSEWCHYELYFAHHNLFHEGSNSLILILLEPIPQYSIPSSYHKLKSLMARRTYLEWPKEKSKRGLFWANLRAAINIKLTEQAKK

[3] = Intrinsic clearance in dog liver microsomes assessed per mg protein at 1 uM measured after 60 mins; type: ADME, Canis lupus familiaris, Microsome; details: read-out: CLH
[4] = Intrinsic clearance in cynomolgus monkey hepatocytes at 1 uM measured after 120 mins; type: ADME, cell-based, Macaca fascicularis, Hepatocyte; details: 2 h
[5] = AUC(0 to last) in cynomolgus monkey plasma at 9 mg/kg, administered through oral gavage measured after 24 hrs; type: ADME, organism-based, Macaca fascicularis; design: dose 9 mg/kg, route oral, time 0 - last
[6] = Cmax in cynomolgus monkey plasma at 30 mg/kg, administered through oral gavage measured after 24 hrs; type: ADME, organism-based, Macaca fascicularis; design: dose 30 mg/kg, route oral
[7] = molecular target: T1, Toll-like receptor 7 (Homo sapiens); assay: Activation of TLR7 in human PBMCs incubated for overnight duration followed by compound-treated cell supernatant conditioned media transfer to HCV1b transfected human HuH7-luc/neo replicon cells assessed as induction of INFalpha-mediated suppression of virus growth by firefly-luciferase reporter gene assay
[8] = molecular target: Toll-like receptor 2 (Homo sapiens) (UniProt O60603); assay: Agonist activity at wild-type human TLR2 expressed in HEK293 cells up to 25 uM measured after 6 hrs by NF-kappaB luciferase reporter gene assay; type: cell-based
[9] = molecular target: T3, Toll-like receptor 6 (Homo sapiens) (UniProt Q9Y2C9); assay: Agonist activity at wild-type human TLR6 expressed in HEK293 cells up to 25 uM measured after 6 hrs by NF-kappaB luciferase reporter gene assay; type: cell-based
T3 sequence (whole entry): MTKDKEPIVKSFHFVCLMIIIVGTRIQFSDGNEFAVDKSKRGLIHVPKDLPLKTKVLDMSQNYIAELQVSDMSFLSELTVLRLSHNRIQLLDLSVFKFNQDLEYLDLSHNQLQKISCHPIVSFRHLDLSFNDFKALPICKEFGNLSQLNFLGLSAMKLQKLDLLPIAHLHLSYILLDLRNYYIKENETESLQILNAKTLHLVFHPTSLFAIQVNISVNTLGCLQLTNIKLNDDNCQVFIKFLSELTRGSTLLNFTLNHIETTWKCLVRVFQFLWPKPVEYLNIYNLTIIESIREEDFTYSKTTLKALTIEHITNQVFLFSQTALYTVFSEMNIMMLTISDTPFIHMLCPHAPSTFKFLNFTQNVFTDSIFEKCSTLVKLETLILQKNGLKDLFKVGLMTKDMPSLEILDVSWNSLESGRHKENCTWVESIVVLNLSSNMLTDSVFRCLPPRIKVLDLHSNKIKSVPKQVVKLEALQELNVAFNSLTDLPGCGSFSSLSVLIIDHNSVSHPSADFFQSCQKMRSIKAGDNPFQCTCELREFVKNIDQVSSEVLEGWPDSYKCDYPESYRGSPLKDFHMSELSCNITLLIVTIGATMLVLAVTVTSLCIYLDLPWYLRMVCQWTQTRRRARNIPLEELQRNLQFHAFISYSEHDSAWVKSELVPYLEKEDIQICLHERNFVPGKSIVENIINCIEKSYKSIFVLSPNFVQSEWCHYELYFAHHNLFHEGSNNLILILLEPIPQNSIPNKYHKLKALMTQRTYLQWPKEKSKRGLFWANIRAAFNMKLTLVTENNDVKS

Chain of Toll-like receptor 2 (Homo sapiens) (O60603 whole entry): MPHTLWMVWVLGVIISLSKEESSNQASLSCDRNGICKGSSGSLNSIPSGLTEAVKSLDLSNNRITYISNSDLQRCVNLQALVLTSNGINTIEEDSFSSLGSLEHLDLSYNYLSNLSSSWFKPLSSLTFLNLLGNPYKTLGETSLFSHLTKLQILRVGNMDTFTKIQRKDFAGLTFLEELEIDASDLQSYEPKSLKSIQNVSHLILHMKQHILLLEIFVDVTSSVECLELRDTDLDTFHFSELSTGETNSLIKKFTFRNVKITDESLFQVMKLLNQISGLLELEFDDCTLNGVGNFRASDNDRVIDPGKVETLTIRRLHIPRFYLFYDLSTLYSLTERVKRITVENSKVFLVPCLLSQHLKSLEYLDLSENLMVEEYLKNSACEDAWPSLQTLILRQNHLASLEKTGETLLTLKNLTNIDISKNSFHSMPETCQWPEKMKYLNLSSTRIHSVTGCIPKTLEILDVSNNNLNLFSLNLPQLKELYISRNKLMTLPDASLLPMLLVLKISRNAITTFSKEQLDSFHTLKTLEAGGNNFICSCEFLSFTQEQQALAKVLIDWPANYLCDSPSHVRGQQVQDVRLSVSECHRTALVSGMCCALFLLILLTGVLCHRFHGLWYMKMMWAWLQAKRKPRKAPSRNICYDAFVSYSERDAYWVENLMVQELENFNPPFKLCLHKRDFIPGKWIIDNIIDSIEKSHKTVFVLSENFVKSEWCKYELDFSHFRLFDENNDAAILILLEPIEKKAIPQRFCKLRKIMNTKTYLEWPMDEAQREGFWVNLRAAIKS

- LED [1]: 1.6 µM
- Activity [2]: inactive
- microsomal CLint at 1 µM [3]: 7 µL/min/mg
- CLH [4]: 103 µL/min
- AUC(0-t) at 24 h [5]: 72 ng·h/mL
- Cmax [6]: 355 ng/mL
- LED [7]: 0.5 µM
- Activity [8]: inactive
- Activity [9]: inactive
SMILES: CCCC[C@@H](CCO)Nc1nc(N)ncc1OC
